Measured values reported in US9844546B2, “Antibody against human HIF hydroxylase” (OXFORD UNIVERSITY INNOVATION LIMITED, priority 2001, dated 2017).
Where no end group is shown, it is not given here. [ ]: non-standard residue; d: D form. The star is where a group is joined. Biotin = O=C1N[C@H]2[C@H](CS[C@H]2CCCCC(=O)*)N1; Hyp = O=C(O)[C@@H]1C[C@@H](O)CN1

What was measured:
[1] = tested on: C. elegans; test: Immunoblot of ceHIF (HIF-1) in extracts of treated worms; assay type: in vivo; conditions: 200 μM in liquid media, 6 or 16 hrs
Experimental: Immunoblots of ceHIF levels in extracts of c. elegans were carried out to monitor regulation by hypoxia and iron chelation. Firstly, the oxygen dependence of protein induction was analysed. Worms were grown on plates in bell jars flushed with air (N), or with oxygen/balance nitrogen having an oxygen concentration of 5%, 1%, 0.5% or 0.1% for 18 hrs. A graded increase in protein level was seen as the oxygen level was reduced below 5% with the highest level of induction at 0.5 and 0.1% oxygen concentration. The time course of protein induction was then studied. Worms were grown in bell jars flushed with a 0.1% oxygen/balance nitrogen mixture for 0, 4, 8, 16 or 24 hrs before preparation of extracts. […] The time course of protein decay on re-oxygenation was then assessed. Worms were grown in bell jars flushed with air (N) or a 0.1% oxygen/balance nitrogen mixture. Extracts were made either immediately, or after 4 and 8 minutes of re-oxygenation. Decay of ceHIF protein was very rapid on re-oxygenation. […] A time course RNAse protection assay showing cehif mRNA levels in worms exposed to 0.1% oxygen/balance nitrogen for 0, 4, 8, 16 and 24 hrs was carried out. No induction of ceHIF mRNA by hypoxia was seen. […] Induction by iron chelation was also studied in C. elegans. […]

[2] = tested on: HIF-α/pVHL interaction; test: Interaction of HIF-1α and pVHL.HA reticulocyte IVTTs, anti-HA co-immunoprecipitation; assay type: biochemical, human; conditions: 100 μM added to the HIF-1α IVTT
Experimental: ^35S-Methionine labelled […] subunits and pVHL.HA were produced separately by IVTT (in vitro transcription and translation) in reticulocyte lysates. IVTTs were performed under different conditions, mixed, and assayed for interaction by anti-HA co-immunoprecipitation. These in vitro assays allowed analysis of the HIFα/pVHL interaction using the recombinant proteins.
Labelled HIF-1α and pVHL.HA were generated separately in reticulocyte lysates (IVTT), in the presence or absence of Co (II), desferrioxamine, or Fe(II). Lysates were mixed in various combinations, and interactions assayed by anti-HA immunoprecipitation.
• 1. G. L. Semenza, Genes Dev 14, 1983-91. (2000). • 2. N. V. Iyer, et al., Genes Dev. 12, 149-162 (1997). • 3. E. Maltepe, J. V. Schmidt, D. Baunoch, C. A. Bradfield, M. C. Simon, Nature 386, 403-407 (1997). • 4. G. L. Wang, B.-H. Jiang, E. A. Rue, G. L. Semenza, Proc. Natl. Acad. Sci. USA 92, 5510-5514 (1995). • 5. S. Salceda, J. Caro, J. Biol. Chem. 272, 22642-22647 (1997). • 6. L. E. Huang, J. Gu, M. Schau, H. F. Bunn, Proc. Natl. Acad. Sci. USA 95, 7987-7992 (1998). • 7. M. S. Wiesener, et al., Blood 92, 2260-2268 (1998). • 8. P. H. Maxwell, et al., Nature 399, 271-275 (1999). • 9. K. Iwai, et al., Proc. Natl. Acad. Sci. USA 96, 12436-12441 (1999). • 10. J. Lisztwan, G. Imbert, C. Wirbelauer, M. Gstaiger, W. Krek, Genes Dev 13, 1822-33 (1999). • 11. M. E. Cockman, et al., J Biol Chem (2000). • 12. M. Ohh, et al., Nat Cell Biol 2, 423-7. (2000). • 13. T. Kamura, et al., Proc Natl Acad Sci USA 97, 10430-5. (2000). • 14. K. Tanimoto, Y. Makino, T. Pereira, L. Poellinger, Embo J 19, 4298-309. (2000). • 15. M. A. Goldberg, S. P. Dunning, H. F. Bunn, Science 242, 1412-1415 (1988). • 16. G. L. Wang, G. L. Semenza, Blood 82, 3610-3615 (1993). • 17. G. L. Semenza, Cell 98, 281-284 (1999). • 18. Hypoxia (<0.1% oxygen) was obtained in a workstation with O2, CO2 and temperature control (Ruskinn Technologies, Leeds, UK). For hypoxic harvest, buffers were preincubated in the chamber overnight. […]

[3] = tested on: EGLN-2 and EGLN-3; test: Modification and pVHL binding assay with reticulocyte lysate programmed with EGLN-2 or EGLN-3; assay type: biochemical, human; conditions: desferrioxamine 200 μM, cobaltous chloride 200 μM
Excerpt: Protein containing HIF-1 sequence (amino acids 549-582) was generated in a reticulocyte in vitro transcription translation reaction in the presence of 100 micromolar desferrioxamine, retrieved and then exposed to […] translates containing the putative enzymes as described above. These proteins contain the critical proline (564) which can be modified by hydroxylation and which enables recognition by von Hippel Lindau tumour suppressor protein (pVHL).
The modification of the HIF-1 sequence was assayed by the binding of the HIF-1 to radiolabelled pVHL, generated by in vitro transcription and translation of a pcDNA3 vector containing the human wild type pVHL open reading frame in a rabbit reticulocyte lysate in the presence of ^35S-methionine.
Modification and pVHL binding assays were performed as described above. Rabbit reticulocyte lysate was programmed with pcDNA3 based plasmids containing no insert, an insert encoding the full open reading frame of the human homologue of C. elegans Egl-9 known as EGLN-2, or an insert encoding the full open reading frame of the human homologue known as EGLN-3. Modification was performed in the absence of additives, in the presence of oxalylglycine, oxalylglycine plus 2-oxoglutarate, 200 μM desferrioxamine or 200 μM cobaltous chloride.

[4] = molecular target: T1, VHL-1 (Caenorhabditis elegans, UniProt Q19213); test: Peptide blocking of HIF-1 capture by HA.VHL-1 and capture of native VHL-1 by biotinylated peptides; assay type: binding, C. elegans; conditions: for blocking of capture of pretreated HIF-1 by HA.VHL-1: peptide 1 μM
T1 construct: made in house; host or cells: TNT rabbit reticulocyte lysate, IVTT
T1 sequence (Q19213 1-174): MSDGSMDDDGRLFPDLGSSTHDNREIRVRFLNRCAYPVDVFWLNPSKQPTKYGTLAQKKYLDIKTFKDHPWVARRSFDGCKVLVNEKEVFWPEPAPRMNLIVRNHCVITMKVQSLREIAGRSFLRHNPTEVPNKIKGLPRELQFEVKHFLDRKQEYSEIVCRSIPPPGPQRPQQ
Experimental: For peptide blocking experiments peptides (final conc. 1 μM) were pre-incubated with VHL-1 for 15 min before addition to the interaction.
To test whether hydroxylation of the critical P621 residue in C. elegans HIF-1 could indeed promote binding to VHl-1, we synthesised N-terminal biotinylated peptides corresponding to residues 607-634 of C. elegans HIF-1 that contained either a proline (B28Pro) or a (2S, 4R)-trans-hydroxyproline residue (B28Hyp) at position 621.
Furthermore. […] Finally, to test the importance of prolyl hydroxylation in regulating C. elegans HIF-1 in vivo we exposed worms to the cell-penetrating prolyl hydroxylase inhibitor, dimethyloxalylglycine.

## c1ccc(-c2ccccn2)nc1 [2′, 2′ dipyrridyl, reference compound]
[1]
  ceHIF protein level: striking Induction of ceHIF

## CC(=O)N(O)CCCCCNC(=O)CCC(=O)N(O)CCCCCNC(=O)CCC(=O)N(O)CCCCCN [desferrioxamine]
[2]
  capture of HIF-1α by pVHL.HA: greatly diminished capture
[3]
  Enzyme activity (modification of HIF-1 to VHL binding form): diminished

## B28Hyp: N-terminal biotinylated peptide, residues 607-634 of C. elegans HIF-1, (2S, 4R)-trans-hydroxyproline at position 621 (Biotin-DDLQWEEPDLSCLA[Hyp]FVDTYDMMQMDEG)
[4]
  blocking of capture of pretreated HIF-1 by HA.VHL-1: blocked capture
[4]; wild type but not vhl-1 mutant worms
  capture of native VHL-1 from worm extracts: captured immunodetectable native VHL-1

## B28Pro: N-terminal biotinylated peptide, residues 607-634 of C. elegans HIF-1, proline at position 621 (Biotin-DDLQWEEPDLSCLAPFVDTYDMMQMDEG)
[4]
  blocking of capture of pretreated HIF-1 by HA.VHL-1: not
